The values that follow come from US10414763B2 (CANCER RESEARCH TECHNOLOGY LIMITED, priority 2014, dated 2019).

This test addresses T1, full-length human PKCι (Homo sapiens, UniProt P41743).
T1 construct: Recombinant, full-length human PKCι expressed in Sf21 insect cells is also commercially available; purchased EMD Millipore; host or cells: Sf21 insect cells (baculovirus)
T1 sequence (P41743 1-596): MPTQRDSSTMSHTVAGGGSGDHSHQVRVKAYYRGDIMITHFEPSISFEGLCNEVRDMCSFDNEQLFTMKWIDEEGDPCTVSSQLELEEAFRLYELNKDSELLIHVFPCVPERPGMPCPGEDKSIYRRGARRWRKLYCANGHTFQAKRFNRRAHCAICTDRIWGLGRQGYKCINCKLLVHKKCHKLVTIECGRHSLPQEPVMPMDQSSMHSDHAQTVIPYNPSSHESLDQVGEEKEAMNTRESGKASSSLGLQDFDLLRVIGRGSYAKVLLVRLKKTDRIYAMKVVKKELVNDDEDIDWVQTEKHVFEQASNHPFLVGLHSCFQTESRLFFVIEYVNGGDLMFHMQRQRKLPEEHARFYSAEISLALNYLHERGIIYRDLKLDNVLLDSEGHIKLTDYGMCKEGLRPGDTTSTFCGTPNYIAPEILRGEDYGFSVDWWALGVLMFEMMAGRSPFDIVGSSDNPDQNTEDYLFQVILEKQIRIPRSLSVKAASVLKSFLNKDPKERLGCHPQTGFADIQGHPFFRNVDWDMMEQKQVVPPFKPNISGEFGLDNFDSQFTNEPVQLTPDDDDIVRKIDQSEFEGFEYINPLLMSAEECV
Put plainly: PKCι IC50 IMAP fluorescence polarisation assay, full-length enzyme, 150 μM ATP. Format: biochemical. The settings on record: read-out: IC50 in IMAP assay against full length PKCi at 150 μM ATP. An outline of the steps: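 IMAP fluorescence polarisation kinase assay: 15 pM baculovirus-expressed human PKCiota with 100 nM FAM-pseudosubstrate peptide and 150 μM ATP, 1 h at 25 °C. IMAP detection reagent then 2 h at 25 °C before FP measurement. Inhibition referenced to no-compound and no-enzyme controls for IC50 fitting.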

What is called IC50 is the concentration that gives 50% inhibition.

`COc1cncc2nc(-c3ccnc(Nc4ncccc4F)c3)nc(N[C@H]3CCNCC3(C)C)c12` [Example 269, N-[(4S)-3,3-dimethyl-4-piperidyl]-2-[2-[(3-fluoro-2-pyridyl)amino]-4-pyridyl]-5-methoxy-pyrido[3,4-d]pyrimidin-4-amine]: the concentration for half-maximal inhibition (IC50) was in the range of 100 to 1000 nM.
Next, `C[C@@]1(O)CNCC[C@H]1Nc1nc(-c2ccnc3[nH]c4ccccc4c23)nc2cncc(C3CC3)c12` (racemic) [Example 247, rac-(3R,4R)-4-[5-Cyclopropyl-2-(9H-pyrido[2,3-b]indol-4-yl)-pyrido[3,4-d]pyrimidin-4-ylamino]-3-methyl-piperidin-3-ol]: < 100 nM.
The same measure for `CC1(C)CNCC[C@@H]1Nc1nc(-c2ccnc(Nc3ncc(Cl)cc3Cl)c2)nc2cncc(C3CC3)c12` [Example 340, 5-Cyclopropyl-2-[2-[(3,5-dichloro-2-pyridyl)amino]-4-pyridyl]-N-[(4S)-3,3-dimethyl-4-piperidyl]pyrido[3,4-d]pyrimidin-4-amine]: < 100 nM; for `Cc1cncc(-c2cc3c(-c4nc(N[C@H]5CCNCC5(C)C)c5c(C6CC6)cncc5n4)ccnc3[nH]2)c1` [Example 362, {5-Cyclopropyl-2-[2-(5-methyl-pyridin-3-yl)-1H-pyrrolo[2,3-b]pyridin-4-yl]-pyrido[3,4-d]pyrimidin-4-yl}-((S)-3,3-dimethyl-piperidin-4-yl)-amine]: < 100 nM.
For `CC1(C)CNCCC1Nc1nc(-c2ccnc(Nc3nc(F)cc(F)c3F)c2)nc2cncc(C3CCC3)c12` (stereo not shown) [Example 87, {5-Cyclobutyl-2-[2-(3,4,6-trifluoro-pyridin-2-ylamino)-pyridin-4-yl]-pyrido[3,4-d]pyrimidin-4-yl}-(3,3-dimethyl-piperidin-4-yl)-amine], the IC50 was < 100 nM.
As to `CC1(C)CNCCC1Nc1nc(-c2ccnc(Nc3cc(F)ccn3)c2)nc2cncc(C3CC3)c12` (stereo not shown) [Example 50, {5-Cyclopropyl-2-[2-(4-fluoro-pyridin-2-ylamino)-pyridin-4-yl]-pyrido[3,4-d]pyrimidin-4-yl}-(3,3-dimethyl-piperidin-4-yl)-amine], the half-inhibitory concentration (IC50) is < 100 nM.
Turning to `COc1ccccc1-c1cc2c(-c3nc(N(C)C4CCNCC4(C)C)c4c(C5CC5)cncc4n3)ccnc2[nH]1` (stereo not shown) [Example 23, {5-Cyclopropyl-2-[2-(2-methoxy-phenyl)-1H-pyrrolo[2,3-b]pyridin-4-yl]-pyrido[3,4-d]pyrimidin-4-yl}-(3,3-dimethyl-piperidin-4-yl)-methyl-amine], the half-inhibitory concentration (IC50) is < 100 nM.
Next, `CN(c1nc(-c2ccnc(Nc3nc(F)c(F)cc3F)c2)nc2cncc(C3CCC3)c12)C1CCNCC1(C)C` (stereo not shown) [Example 106, {5-Cyclobutyl-2-[2-(3,5,6-trifluoro-pyridin-2-ylamino)-pyridin-4-yl]-pyrido[3,4-d]pyrimidin-4-yl}-(3,3-dimethyl-piperidin-4-yl)-methyl-amine]: < 100 nM.
The same measure for `CC1(C)CNCC[C@@H]1Nc1nc(-c2ccnc(Nc3ncc(F)cc3F)c2)nc2cncc(C3CCC3)c12` [Example 211, {5-Cyclobutyl-2-[2-(3,5-difluoro-pyridin-2-ylamino)-pyridin-4-yl]-pyrido[3,4-d]pyrimidin-4-yl}-((S)-3,3-dimethyl-piperidin-4-yl)-amine]: < 100 nM; for `O=S(=O)(Nc1cc(-c2nc(N3CCNCC3)c3c(C4CC4)cncc3n2)ccn1)c1ccc(F)cc1` [Example 65, N-[4-(5-Cyclopropyl-4-piperazin-1-yl-pyrido[3,4-d]pyrimidin-2-yl)-pyridin-2-yl]-4-fluoro-benzenesulfonamide]: 100 to 1000 nM; for `CC(C)(C)c1csc(Nc2cc(-c3nc(NC4CCNCC4(C)C)c4c(C5CCC5)cncc4n3)ccn2)n1` (stereo not shown) [Example 72, {2-[2-(4-tert-Butyl-thiazol-2-ylamino)-pyridin-4-yl]-5-cyclobutyl-pyrido[3,4-d]pyrimidin-4-yl}-(3,3-dimethyl-piperidin-4-yl)-amine]: 100 to 1000 nM.
As to `Fc1ccc(F)c(Nc2cc(-c3nc(N[C@H]4[C@@H]5CNC[C@@H]54)c4c(C5CCC5)cncc4n3)ccn2)n1` [Example 109, (1S,6S)-3-Aza-bicyclo[3.1.0]hex-6-yl-{(R)-5-cyclobutyl-2-[2-(3,6-difluoro-pyridin-2-ylamino)-pyridin-4-yl]-pyrido[3,4-d]pyrimidin-4-yl}-amine], the IC50 was < 100 nM.
As to `CC1(C)CNCC[C@@H]1Nc1nc(-c2ccnc(Nc3cc4ccccn4n3)c2)nc2cncc(C3CCC3)c12` [Example 380, {5-Cyclobutyl-2-[2-(pyrazolo[1,5-a]pyridin-2-ylamino)-pyridin-4-yl]-pyrido[3,4-d]pyrimidin-4-yl}-((S)-3,3-dimethyl-piperidin-4-yl)-amine], the IC50 was < 100 nM.
Regarding `CC1(C)CNCC[C@@H]1Nc1nc(-c2ccnc(Nc3nc(F)c(F)cc3F)c2)nc2cncc(C3CC3)c12` [Example 278, {5-Cyclopropyl-2-[2-(3,5,6-trifluoro-pyridin-2-ylamino)-pyridin-4-yl]-pyrido[3,4-d]pyrimidin-4-yl}-((S)-3,3-dimethyl-piperidin-4-yl)-amine], the concentration for half-maximal inhibition (IC50) was < 100 nM.
For the compound `CN(c1nc(-c2ccnc3[nH]c4ccccc4c23)nc2cncc(C3CCC3)c12)C1CC(N)C1` (stereo not shown) [Example 75, N-[5-Cyclobutyl-2-(9H-pyrido[2,3-b]indol-4-yl)-pyrido[3,4-d]pyrimidin-4-yl]-N-methyl-cyclobutane-1,3-diamine], the half-inhibitory concentration (IC50) is < 100 nM.
Next, `O=C1NC2CC(Nc3nc(-c4ccnc5[nH]c6ccccc6c45)nc4cncc(C5CCC5)c34)CC2O1` (stereo not shown) [Example 376, 5-[5-Cyclobutyl-2-(9H-pyrido[2,3-b]indol-4-yl)-pyrido[3,4-d]pyrimidin-4-ylamino]-hexahydro-cyclopentoxazol-2-one]: 1000 to 10000 nM; `CC1(C)CNCC[C@@H]1Nc1nc(-c2ccnc(Nc3ncc(Cl)cc3F)c2)nc2cncc(C3CC3)c12` [Example 319, {2-[2-(5-Chloro-3-fluoro-pyridin-2-ylamino)-pyridin-4-yl]-5-cyclopropyl-pyrido[3,4-d]pyrimidin-4-yl}-((S)-3,3-dimethyl-piperidin-4-yl)-amine]: < 100 nM.
Next, `CC(C)(C)c1nc(-c2cc3c(-c4nc(N5CC[C@H]6NCC[C@H]65)c5c(C6CC6)cncc5n4)ccnc3[nH]2)cs1` (racemic) [Example 34, (±)-2-[2-(2-tert-Butyl-thiazol-4-yl)-1H-pyrrolo[2,3-b]pyridin-4-yl]-5-cyclopropyl-4-(3,6-cis)-hexahydro-pyrrolo[3,2-b]pyrrol-1-yl-pyrido[3,4-d]pyrimidine]: < 100 nM.
Turning to `Fc1ccc(Cl)c(-c2cc3c(-c4nc(N5CCOC6CNCC65)c5c(C6CC6)cncc5n4)ccnc3[nH]2)c1` (stereo not shown) [Example 360, 2-[2-(2-Chloro-5-fluoro-phenyl)-1H-pyrrolo[2,3-b]pyridin-4-yl]-5-cyclopropyl-4-(hexahydro-pyrrolo[3,4-b][1,4]oxazin-4-yl)-pyrido[3,4-d]pyrimidine], the concentration for half-maximal inhibition (IC50) was < 100 nM.
As to `O[C@H]1CNCC[C@H]1Nc1nc(-c2ccnc(Nc3ncccc3F)c2)nc2cncc(C3CCC3)c12` (racemic) [Example 292, rac-(3S,4R)-4-{5-Cyclobutyl-2-[2-(3-fluoro-pyridin-2-ylamino)-pyridin-4-yl]-pyrido[3,4-d]pyrimidin-4-ylamino}-piperidin-3-ol], the half-inhibitory concentration (IC50) is < 100 nM.
As for `COc1cncc2nc(-c3ccnc(Nc4nc(F)ccc4F)c3)nc(N[C@H]3CCNCC3(C)C)c12` [Example 268, 2-[2-[(3,6-difluoro-2-pyridyl)amino]-4-pyridyl]-N-[(4S)-3,3-dimethyl-4-piperidyl]-5-methoxy-pyrido[3,4-d]pyrimidin-4-amine], the IC50 is < 100 nM.
The same measure for `CC1(C)CNCC[C@@H]1Nc1nc(-c2ccnc3[nH]c(-c4cncc(F)c4)cc23)nc2cncc(C3CC3)c12` [Example 365, {5-Cyclopropyl-2-[2-(5-fluoro-pyridin-3-yl)-1H-pyrrolo[2,3-b]pyridin-4-yl]-pyrido[3,4-d]pyrimidin-4-yl}-((S)-3,3-dimethyl-piperidin-4-yl)-amine]: < 100 nM; for `CC1(C)CNCC[C@@H]1Nc1nc(-c2ccnc(Nc3nc4ccc(F)cc4o3)c2)nc2cncc(C3CCC3)c12` [Example 338, N-[4-[5-Cyclobutyl-4-[[(4S)-3,3-dimethyl-4-piperidyl]amino]pyrido [3,4-d]pyrimidin-2-yl]-2-pyridyl]-6-fluoro-1,3-benzoxazol-2-amine]: < 100 nM.
Next, `C[C@@H]1CNCC[C@@H]1Nc1nc(-c2ccnc(Nc3ncccc3F)c2)nc2cncc(C3CC3)c12` (racemic) [Example 299, {5-Cyclopropyl-2-[2-(3-fluoro-pyridin-2-ylamino)-pyridin-4-yl]-pyrido[3,4-d]pyrimidin-4-yl}-(rac-(3R,4S)-3-methyl-piperidin-4-yl)-amine]: 100 to 1000 nM; `O[C@H]1CCN(c2nc(-c3ccnc4[nH]c5ccccc5c34)nc3cncc(C4CCC4)c23)C1` [Example 253, (S)-1-[5-Cyclobutyl-2-(9H-pyrido[2,3-b]indol-4-yl)-pyrido[3,4-d]pyrimidin-4-yl]-pyrrolidin-3-ol]: 1000 to 10000 nM.
